Results taken from patent US20050085645A1, “O-(3-chloropropenyl) hydroxylamine free base” (priority 2003, published 2005).

Assays:
plants = experiment: Herbicidal potency of clethodim enantiomer versus racemate; assay type: in vivo; conditions: used in a herbicidal composition; no test data given
[1] = Storage stability of CPHA free base and CPHA-HCl solutions (decomposition / GC purity drop); assay type: physicochemical
Protocol: Neither preparation nor applications of solvent-free CPHA free base or aqueous CPHA solution has been reported in the prior art. […] For example, a commercial 40% CPHA-HCl solution decomposes by 52% after 23 days at 35° C., whereas, a 85% CPHA aqueous solution has only 1.1% purity drop after 78 days at 40° C.
The GC method set up for CPHA purity, impurity profile, and hydroxylamine content determination is described as follows. • Instrument: HP 6890 series GC system. • Column: HP-1 capillary column, 10 m×0.53 mm×[…]. • Detector: FID, 250° C. • Inlet: 200° C. • Oven Temperature program: • Initial temperature: 40° C. • Initial time: 2 minutes. • Ramps: 10° C./min, 65° C., 0 minutes • 20° C./min, 250° C., 3 minutes.
Weigh about 2.00 g of sample in a vial containing 2.20 g of cyclohexanone; Add 50% sodium hydroxide if necessary to bring pH to above 9. Stir the mixture in the capped vial at 50° C. for 2 hours. After cooling, add 8.0 g of dichloromethane and shake for one minute. Settle the mixture for 5 minutes. Take the organic phase for gas chromatographic (GC) analysis. CPHA purity and impurity profile are directly based on GC area. Hydroxylamine content is calculated based on the integration area of cyclohexanone oxime (cyclohexanoxime) peak and O-(chloro-2-propenyl)cyclohexanoxime peak.

[2] = Solubility / miscibility in water; assay type: physicochemical
[3] = Solubility in organic solvents; assay type: physicochemical; conditions: ethers, alcohol, toluene, chlorinated alkanes
Excerpt: For example, to make a O-(3-chloro-2-propenyl)hydroxylamine solution in dichloromethane, CPHA is simply mixed with dichloromethane. No exotherm was observed.

CCSC(C)CC1CC(=O)C(/C(CC)=N/OC/C=C/Cl)=C(O)C1 (single isomer, unassigned; (-)) [(−) clethodim]
potency compared to the racemic form or (+) clethodim (plants): increased potency

NOCC=CCl [CPHA, O-(3-Chloro-2-propenyl)hydroxylamine]
purity drop ([1]; 85% CPHA aqueous solution, after 78 days at 40° C.): 1.1%
miscibility with water ([2]; room temperature): miscible with water
solubility in organic solvents [3]: soluble in many organic solvents

Cl.NOCC=CCl [CPHA-HCl, O-(3-chloro-2-propenyl)hydroxylamine hydrochloride, reference compound]
decomposition of solution ([1]; commercial 40% CPHA-HCl solution, after 23 days at 35° C.): 52%
maximum solubility ([2]; commercially available CPHA-HCl solution in water): about 45%
